≈ marks a conversion by molar mass, not a printed value. Structures can show the parent of a compound that is named as a salt.
Experiments:
Sarcoma 180 = assay: In vivo antitumor activity against Sarcoma 180; design: species or system male ICR mice; settings: i.p., days 1, 5 and 9
Experimental: In Vivo Antitumor Activity Against Sarcoma 180
The compounds of general formula (I) were tested in vivo against Sarcoma 180 xenografted tumor to mice as illustrated herein after.
Sarcoma 180, 5×10^6 cells were inoculated by S.C. to male ICR mice (6 week old) on day 0. Drugs were administered on days 1, 5 and 9. Mice were killed and tumor weight was measured on day 12 after transplantation. The percentage inhibition of tumor growth was calculated from the mean tumor weight of the treated group compared with that of the control group. Number of mice used in each group was between 6 to 7.

KB cells = assay: In vitro KB cell cytotoxicity assay (crystal violet); assay type: cell-based; settings: Homo sapiens, 72 h, 3 days culture, read-out: KB Cell Cytotoxicity TD50
Experimental: In Vitro KB Cell Cytotoxicity Assay In vitro KB cell cytoxocity assay was done by modification of the crystal violet assay ([…] et al., Anal Biochem., 159, 109-113 (1986). KB cells were cultivated in Eagles minimum essential medium supplemented with 10% calf serum and incubated at 37° C. in a humidified 5% CO2 atmosphere to prepare a cell stock. Cells were counted using a neubauer hemocytometer and seeded in 96 well plates at 100 μl of 3×10^4 cells/ml and cultured for one day. […] Control wells were identical except that test compound was absent. These were cultured for three days. Then the cells were fixed with addition of 20 μl of 25% glutaraldehyde for 15 minutes, washed with water and dried. Then stained with 100 μl of 0.05% crystal violet for 15 minutes, washed with water and dried. The wells are eluted with […] of 0.05M NaH2 PO4 /ethanol (1:1 v/v) and read at OD540 on a multiscan spectrophotometer. Inhibition value of cell growth was calculated based on optical density using the following equation; [formula] TD50 values were calculated from linear regression ines of the log-logit plot.

[1] = Mus musculus, Sarcoma-180, ip, 288 h, 12.5 mg/kg/day, tumor s.c., tumor weight day 12, read-out: % Inhibition of tumor growth
[2] = Mus musculus, Sarcoma-180, ip, 288 h, 25 mg/kg/day, tumor s.c., tumor weight day 12, read-out: % Inhibition of tumor growth
[3] = Mus musculus, Sarcoma-180, ip, 288 h, 50 mg/kg/day, tumor s.c., tumor weight day 12, read-out: % Inhibition of tumor growth
[4] = Mus musculus, Sarcoma-180, ip, 288 h, 100 mg/kg/day, tumor s.c., tumor weight day 12, read-out: % Inhibition of tumor growth
[5] = Mus musculus, Sarcoma-180, ip, 288 h, 6.3 mg/kg/day, tumor s.c., tumor weight day 12, read-out: % Inhibition of tumor growth

| Compound | Mortality in 12 days (Sarcoma 180; 12.5 mg/kg/day) | Mortality in 12 days (Sarcoma 180; 25 mg/kg/day) | Mortality in 12 days (Sarcoma 180; 50 mg/kg/day) | inhibition in vivo at 12.5 mg/kg (Sarcoma 180; [1]) | inhibition in vivo at 25 mg/kg (Sarcoma 180; [2]) | inhibition in vivo at 50 mg/kg (Sarcoma 180; [3]) | IC50 (KB cells) | Mortality in 12 days (Sarcoma 180; 100 mg/kg/day) | inhibition in vivo at 100 mg/kg (Sarcoma 180; [4]) | also measured |
| --- | --- | --- | --- | --- | --- | --- | --- | --- | --- | --- |
| C[C@H](N)C(=O)OC[C@H]1CN2C(=O)C[C@@H]2O1.Cl (mixture of isomers) [Example 48B, (3RS,5SR)-3-(L-2-Aminopropanoyl)oxymethyl-4-oxa-1-azabicyclo[3.2.0]heptan-7-one hydrochloride] | 0/6 | 0/6 | 2/6 | 44.9% | 66.8% | 77.3% | 0.878 µg/mL |  |  |  |
| O=C(Cc1cccs1)NC[C@@H]1CN2C(=O)C[C@H]2O1 (racemic) [Example 31, (3RS,5RS)-3-[N-(Thiophen-2-yl)acetylaminomethyl]-4-oxa-1-azabicyclo[3.2.0]heptan-7-one] |  |  |  |  |  |  | 0.098 µg/mL (≈ 0.368 µM) |  |  | Mortality in 12 days (Sarcoma 180; 40 mg/kg/day): 1/6; inhibition in vivo at 40 mg/kg (Sarcoma 180; Mus musculus, Sarcoma-180, ip, 288 h, 40 mg/kg/day, tumor s.c., tumor weight day 12, read-out: % Inhibition of tumor growth): 35.5% |
| CC(C)[C@H](N)C(=O)N[C@@H](COCc1ccccc1)C(=O)OCC1CN2C(=O)CC2O1 (stereo partly drawn) [Example 74B, (3RS,5SR)-3-[L-2-N-(L-2-N-Amino-3-methylbutyryl)amino-3-benzyloxypropanoyloxymethyl]-4-oxa-1-azabicyclo[3.2.0]heptan-7-one hydrochloride] |  |  | 0/6 |  |  | 49.9% | 0.669 µg/mL | 1/6 | 84.1% |  |
| C[C@@H](N)C(=O)NCC1CN2C(=O)CC2O1 (stereo partly drawn) [Example 53B, (3RS,5RS)-3-N-(D-2-Aminopropanoyl)aminomethyl-4-oxa-1-azabicyclo[3.2.0]heptan-7-one hydrochloride] | 0/6 | 1/6 |  | 61.9% | 73.8% |  | 0.316 µg/mL |  |  | Mortality in 12 days (Sarcoma 180; 6.3 mg/kg/day): 0/6; inhibition in vivo at 6.3 mg/kg (Sarcoma 180; [5]): 47.3% |
| CC(C)[C@@H](N)C(=O)OC[C@H]1CN2C(=O)C[C@@H]2O1.Cl (mixture of isomers) [Example 60B, (3RS,5SR)-3-(D-2-Amino-3-methylbutyryl)oxymethyl-4-oxa-1-azabicyclo[3.2.0]heptan-7-one hydrochloride] |  |  | 0/6 |  |  | 49.8% | 0.903 µg/mL | 0/6 | 77.7% |  |
| Cl.NCC(=O)NCC(=O)OC[C@H]1CN2C(=O)C[C@@H]2O1 (racemic) [Example 40B, (3RS,5SR)-3-[N-(Aminoacetyl)aminoacetyl]oxymethyl-4-oxa-1-azabicyclo[3.2.0]heptan-7-one hydrochloride] | 0/6 | 0/6 | 0/6 | 48.3% | 54% | 72% | 0.636 µg/mL |  |  |  |
| C[C@@H](NC(=O)Cc1cccs1)C(=O)N[C@H](C)C(=O)OCC1CN2C(=O)CC2O1 (stereo partly drawn) [Example 52, (3RS,5SR)-3-{D-2-N-[D-2-N-(Thiophen-2-yl)acetylaminopropanoyl]aminopropanoyl}oxymethyl-4-oxa-1-azabicyclo[3.2.0]heptan-7-one] |  | 0/6 | 0/6 |  | 45.2% | 63.9% | 0.197 µg/mL (≈ 0.481 µM) | 2/6 | 70.7% |  |
| N[C@@H](CC(=O)O)C(=O)OC[C@H]1CN2C(=O)C[C@@H]2O1 (mixture of isomers) [Example 66B, (3RS,5SR)-3-(L-2-Amino-3-carboxypropanoyl)oxymethyl-4-oxa-1-azabicyclo[3.2.0]heptan-7-one] | 0/6 | 0/6 |  | 53.2% | 62.9% |  | 0.204 µg/mL |  |  | Mortality in 12 days (Sarcoma 180; 6.3 mg/kg/day): 0/6; inhibition in vivo at 6.3 mg/kg (Sarcoma 180; [5]): 33.7% |
| O=C(NCCCC[C@H](NC(=O)OCc1ccccc1)C(=O)OCC1CN2C(=O)CC2O1)OCc1ccccc1 (stereo partly drawn) [Example 77A, (3RS,5SR)-3-(L-2,6-N-Dibenzyloxycarbonylaminohexanoyl)oxymethyl-4-oxa-1-azabicyclo[3.2.0]heptan-7-one] |  |  | 0/6 |  |  | 39.1% | 1.18 µg/mL (≈ 2.19 µM) | 2/6 | 67.3% |  |
| O=C1C[C@H]2O[C@H](CNC(=O)C(F)(F)F)CN12 (racemic) [Example 7, (3RS,5RS)-3-[N-(Trifluoroacetyl)aminomethyl]-4-oxa-1-azabicyclo[3.2.0]heptan-7-one] |  |  |  |  |  |  | 0.205 µg/mL (≈ 0.861 µM) | 2/6 | 39.8% |  |
| CC(=O)NCC(=O)NC[C@@H]1CN2C(=O)C[C@H]2O1 (relative stereo) [Example 44, (3RS,5RS)-3-N-(N-Acetylaminoacetyl)aminomethyl-4-oxa-1-azabicyclo[3.2.0]heptan-7-one] | 0/6 | 4/6 |  | 45.9% | 85.3% |  | 0.341 µg/mL (≈ 1.41 µM) |  |  |  |
| CC(C)[C@H](N)C(=O)NCC(=O)OC[C@H]1CN2C(=O)C[C@@H]2O1.Cl (mixture of isomers) [Example 42B, (3RS,5SR)-3-[N-(L-2-Amino-3-methylbutyryl)aminoacetyl]oxymethyl-4-oxa-1-azabicyclo[3.2.0]heptan-7-one hydrochloride] | 0/6 | 0/6 | 0/6 | 49.9% | 69% | 85.8% | 0.388 µg/mL |  |  |  |
| CC(=O)NC[C@H]1CN2C(=O)C[C@@H]2O1 [Example 2, (3S,5S)-3-(N-Acetylaminomethyl)-4-oxa-1-azabicyclo[3.2.0]heptan-7-one] |  |  |  |  |  |  | 0.77 µg/mL (≈ 4.18 µM) |  |  | Mortality in 12 days (Sarcoma 180; 10 mg/kg/day): 0/6; Mortality in 12 days (Sarcoma 180; 20 mg/kg/day): 1/7; inhibition in vivo at 10 mg/kg (Sarcoma 180; Mus musculus, Sarcoma-180, ip, 288 h, 10 mg/kg/day, tumor s.c., tumor weight day 12, read-out: % Inhibition of tumor growth): 44.7%; inhibition in vivo at 20 mg/kg (Sarcoma 180; Mus musculus, Sarcoma-180, ip, 288 h, 20 mg/kg/day, tumor s.c., tumor weight day 12, read-out: % Inhibition of tumor growth): 77.5% |
| CCN(CC)C(=O)NC[C@@H]1CN2C(=O)C[C@H]2O1 (racemic) [Example 33, (3RS,5RS)-3-[N-(N,N-Diethylcarbamyl)]aminomethyl-4-oxa-1-azabicyclo[3.2.0]heptan-7-one] |  |  |  |  |  |  | 0.246 µg/mL (≈ 1.02 µM) |  |  | Mortality in 12 days (Sarcoma 180; 22.5 mg/kg/day): 0/6; Mortality in 12 days (Sarcoma 180; 45 mg/kg/day): 0/6; Mortality in 12 days (Sarcoma 180; 90 mg/kg/day): 0/6; inhibition in vivo at 22.5 mg/kg (Sarcoma 180; Mus musculus, Sarcoma-180, ip, 288 h, 22.5 mg/kg/day, tumor s.c., tumor weight day 12, read-out: % Inhibition of tumor growth): 46.6%; inhibition in vivo at 45 mg/kg (Sarcoma 180; Mus musculus, Sarcoma-180, ip, 288 h, 45 mg/kg/day, tumor s.c., tumor weight day 12, read-out: % Inhibition of tumor growth): 66.2%; inhibition in vivo at 90 mg/kg (Sarcoma 180; Mus musculus, Sarcoma-180, ip, 288 h, 90 mg/kg/day, tumor s.c., tumor weight day 12, read-out: % Inhibition of tumor growth): 74.5% |
| N[C@@H](Cc1ccccc1)C(=O)NCC1CN2C(=O)CC2O1 (stereo partly drawn) [Example 63B, (3RS,5RS)-3-N-(L-2-Amino-3-phenylpropanoyl)aminomethyl-4-oxa-1-azabicyclo[3.2.0]heptan-7-one hydrochloride] |  |  | 0/6 |  |  | 50.3% | 0.573 µg/mL | 0/6 | 57.6% |  |
| C[C@@H](N)C(=O)OC[C@H]1CN2C(=O)C[C@@H]2O1.Cl (mixture of isomers) [Example 51B, (3RS,5SR)-3-(D-2-Aminopropanoyl)oxymethyl-4-oxa-1-azabicyclo[3.2.0]heptan-7-one hydrochloride] | 0/6 | 0/6 | 0/6 | 40.9% | 50.6% | 82.4% | 0.867 µg/mL | 5/6 | 93.8% |  |

Reference: US5994342A, “3-(substituted methyl)-4-oxa-1-azabicyclo[3.2.0]heptan-7-one derivatives useful as antitumor agents” (priority 1994, dated 1999)
